# Test results as given in patent US8158828B2, “Nuclear receptor binding agents” (priority 2005, dated 2012).
# Legend:
# [1] = target: T1, ER-α (Rattus norvegicus, UniProt P06211); test: ER-α transactivation, ERE-LUC in COS or 293 cells; type: cell-based; parameters: % estardiol activity, ER-α: dose or concentration left out as unconfirmed
# T1 sequence (P06211 1-600): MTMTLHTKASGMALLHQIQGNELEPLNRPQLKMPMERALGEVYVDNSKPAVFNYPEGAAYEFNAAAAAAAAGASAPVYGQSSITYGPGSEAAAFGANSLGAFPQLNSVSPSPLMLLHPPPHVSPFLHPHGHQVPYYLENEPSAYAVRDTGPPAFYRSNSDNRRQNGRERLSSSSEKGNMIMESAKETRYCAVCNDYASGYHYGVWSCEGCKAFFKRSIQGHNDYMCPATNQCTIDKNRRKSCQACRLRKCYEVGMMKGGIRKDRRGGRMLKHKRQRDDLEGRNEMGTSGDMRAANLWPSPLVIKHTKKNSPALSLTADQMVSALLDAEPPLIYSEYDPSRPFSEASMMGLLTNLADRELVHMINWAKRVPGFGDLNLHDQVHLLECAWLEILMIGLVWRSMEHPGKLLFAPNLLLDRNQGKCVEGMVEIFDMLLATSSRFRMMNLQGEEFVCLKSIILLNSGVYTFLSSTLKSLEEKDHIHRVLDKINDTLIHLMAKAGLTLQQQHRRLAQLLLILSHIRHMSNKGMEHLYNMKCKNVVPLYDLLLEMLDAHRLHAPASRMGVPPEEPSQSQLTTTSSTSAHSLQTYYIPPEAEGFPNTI
# Protocol: FIG. 1: Effects of the indicated compounds on ER-α transactivation. COS or 293 cells plated in DME without phenol red+10% charcoal stripped fetal bovine serum (csFBS) at 90,000 cells per well of 24 well plates were transfected with 0.25 μg ERE-LUC, 0.02 μg CMV-LUC (Renilla) and 25 ng of ER-α by lipofectamine. Twenty four hours after transfection, the cells were treated as indicated in the figure, harvested 48 hrs after transfection and were assayed for firefly and renilla luciferase.
# (§1) FIG. 5: Effect of the indicated compounds on ER-α transactivation. COS or 293 cells plated in DME without phenol red+10% csFBS at 90,000 cells per well of a 24 well plate were transfected with 0.25 μg ERE-LUC, 0.02 μg CMV-LUC (Renilla) and 5 ng of ER-α by lipofectamine. Twenty four hours after transfection, the cells were treated as indicated in the figure, harvested 48 hrs after transfection and were assayed for firefly and renilla luciferase.
# as §1, with “FIG. 9:” for “FIG. 5:”, “csFBS” for “csFBS at 90,000 cells”, “and 25” for “and 5”
# Also 25 ng of ER-α (FIGS. 1, 5, and 9), 50 ng of ER-β (FIGS. 2, 6 and 10) or 12.5 ng of AR (FIG. 3) were introduced by lipofectamine. All the receptors were cloned from rat tissue into the PCR3.1 vector backbone. […] Cells were harvested 48 hrs after transfection, and assayed for firefly and Renilla luciferase activity.
# Also 25 ng of ER-α), 50 ng of ER-β or 12.5 ng of AR were introduced by lipofectamine. All the receptors were cloned from rat tissue into the PCR3.1 vector backbone. […] Cells were harvested 48 hrs after transfection, and assayed for firefly and Renilla luciferase activity.
# [2] = tested on: osteoblasts; test: Osteoblast activity; type: cell-based
# [3] = tested on: uterus; test: In vivo estrogenic activity, uterine weight; parameters: species or system rat; conditions: female rats, compound alone
# Protocol: Rats that were administered the vehicle alone served as controls.
# [4] = tested on: TRAP positive multinucleated osteoclasts; test: TRAP positive multinucleated osteoclasts from bone marrow cells; type: cell-based, rat; conditions: RANKL and GMCSF, 12 days
# Protocol: FIG. 7: Effect of the indicated compounds on TRAP positive multinucleated osteoclasts. Bone marrow cells from rat femur was cultured in Alpha MEM+10% csFBS without phenol red in the presence or absence of 30 ng/ml RANKL and 10 ng/ml GMCSF. The cells were treated for 12 days and were stained for tartarate resistant acid phosphatase activity (TRAP) and multinucleated osteoclasts were counted.
# Bone marrow cells isolated from rat femur were cultured in Alpha MEM without phenol red+10% sterile FBS without phenol red in the presence or absence of […] RANKL and 10 ng/ml GMCSF. The cells were treated for 12 days were stained for tartarate resistant acid phosphatase activity (TRAP) positive multinucleated osteoclasts and were counted.
# [5] = tested on: pS2 (gene encoding the trefoil peptides) in MCF-7 cells; test: pS2 gene expression in MCF-7 cells (realtime RT-PCR); type: cell-based; conditions: 16 hrs
# Protocol: MCF-7 cells were plated at 500,000 cells per well of a 6 well plate. RNA was isolated and the message levels of pS2 (gene encoding the trefoil peptides) measured and normalized to 18S ribosomal RNA by realtime polymerase chain reaction (rtPCR).
# FIG. 11: Agonistic activity of the indicated compounds in MCF-7 cells. MCF-7 cells were plated at 500,000 cells per well of a 6 well plate. RNA was isolated and the message levels of pS2 gene measured and normalized to 18S ribosomal RNA by realtime rtPCR.
# MCF-7 cells were plated at 500,000 cells per well of a 6 well plate. The cells were serum starved for 3 days and then were treated as above for 16 hrs. RNA was isolated and gene expression levels assessed by realtime RT-PCR, following normalization to 18S ribosomal RNA.
# [6] = target: T2, ER-β (Rattus norvegicus, UniProt Q62986); test: ER-β transactivation, ERE-LUC in COS or 293 cells; type: cell-based; conditions: COS or 293 cells
# T2 construct: expressed in transfected cells; host or cells: COS or 293 cells
# Protocol: as §1, with “FIG. 2:” for “FIG. 5:”, “on ER-β” for “on ER-α”, “and 50” for “and 5”, “of ER-β” for “of ER-α”
# as §1, with “FIG. 6:” for “FIG. 5:”, “on ER-β” for “on ER-α”, “and 50” for “and 5”, “of ER-β” for “of ER-α”, “and” for “and were”
# as §1, with “FIG. 10:” for “FIG. 5:”, “on ER-β” for “on ER-α”, “in DME+10%” for “in DME without phenol red+10%”, “and 50” for “and 5”, “of ER-β” for “of ER-α”
# (§2) All the receptors were cloned from rat tissue into the PCR3.1 vector backbone. […] Cells were harvested 48 hrs after transfection, and assayed for firefly and Renilla luciferase activity.
# as §2
# [7] = tested on: CCRF/CEM; conditions: estrogen receptor-negative cell line; cited from earlier work
# [8] = rats; cited from earlier work
# [9] = tested on: PC-3 cells; test: Androgen independent prostate cancer cell growth; type: cell-based
# Protocol: PC-3 cells were plated in RPMI+10% csFBS at 6000 cells per well of a 96 well plate. Medium was changed to RPMI+1% csFBS without phenol red and then treated for 72 hrs with increasing concentrations of SERMs.
# The prostate cancer cell line PC-3 was plated in RPMI+10% csFBS at 6000 cells per well of a 96 well plate. Medium was changed to RPMI+1% csFBS without phenol red and cells were treated for 72 hrs with increasing concentrations of SERMs.
# PC-3 growth inhibition was determined qualitatively, in vitro, and represented as a grading system based on the ability of the SERMs to inhibit growth. The number −4 is for compounds that induced 100% growth inhibition at 1 uM, −3 for compounds that inhibit growth by about 75-90%, −2 for about 50-70% and −1 for inhibition less than 50% growth.
# [10] = type: in vivo, human; conditions: 80 mg/day
# [11] = baseline to month 12, compared to placebo
# T2 sequence (Q62986 whole entry): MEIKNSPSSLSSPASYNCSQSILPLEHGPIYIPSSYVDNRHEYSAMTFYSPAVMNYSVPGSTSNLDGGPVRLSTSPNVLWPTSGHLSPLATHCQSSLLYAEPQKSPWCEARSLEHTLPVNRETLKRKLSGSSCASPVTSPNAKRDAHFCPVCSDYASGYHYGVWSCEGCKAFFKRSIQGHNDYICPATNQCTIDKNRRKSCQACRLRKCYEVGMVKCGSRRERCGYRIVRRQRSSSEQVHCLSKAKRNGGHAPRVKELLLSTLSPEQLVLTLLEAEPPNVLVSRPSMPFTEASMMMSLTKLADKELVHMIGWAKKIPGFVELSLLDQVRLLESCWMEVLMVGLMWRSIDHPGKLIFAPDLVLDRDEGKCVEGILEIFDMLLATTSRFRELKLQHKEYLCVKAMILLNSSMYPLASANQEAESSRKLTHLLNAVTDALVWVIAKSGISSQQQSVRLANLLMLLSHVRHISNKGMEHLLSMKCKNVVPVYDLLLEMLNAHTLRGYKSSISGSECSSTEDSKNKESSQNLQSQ
smiles,measurement,setting,value
"O=C(c1ccccc1)N(c1ccc(O)cc1)c1ccc(O)cc1 [Compound 3d, N,N-bis-(4-hydroxyphenyl)-benzamide]","% estardiol activity, ER-α",[1],48%
same,osteoblast activity,[2],stimulated osteoblasts
same,estrogenic activity in terms of uterine weight,[3],"exhibited estrogenic activity, in terms of increased uterine weight"
same,osteoclast differentiation / osteoclast activity,[4],suppressed osteoclasts
"O=C(c1ccc(O)cc1)N(c1ccccc1)c1ccccc1 [Compound 3e, 4-hydroxy-N,N-diphenyl-benzamide]",pS2 expression,[5],increased pS2 expression levels
same,"ER-β LUC expression, compound alone",[6],most potent in stimulating ER-β
same,"% estardiol activity, ER-α",[1],133%
same,"ER-α activity (luciferase expression), compound alone",[1]; COS or 293 cells,most potent in stimulating ER-α
same,osteoblast activity,[2],stimulated osteoblast activity
same,estrogenic activity in terms of uterine weight,[3],"exhibited no estrogenic, or anti-estrogenic activity in uterus"
same,osteoclast differentiation / osteoclast activity,[4],highly suppressive of osteoclast activity
CCN(CC)CCOc1ccc(C(=C(Cl)c2ccccc2)c2ccccc2)cc1 [clomiphene],viability of CCRF/CEM cells,[7],cause a decrease in viability
"C[C@]12CC[C@@H]3c4ccc(O)cc4CC[C@H]3[C@@H]1CC[C@@H]2O [estrogen, Estradiol, reference compound]",pS2 expression,[5],increased pS2
same,incidence of lipo-polysaccharide induced inflammatory responses,[8],reduce the incidence of lipo-polysacharride induced inflammatory responses
same,osteoclast differentiation / osteoclast activity,[4],strongly suppressed osteoclast differentiation
COc1ccc2c(c1)CCC(c1ccccc1)=C2c1ccc(OCCN2CCCC2)cc1 [nafoxidine],viability of CCRF/CEM cells,[7],cause a decrease in viability
CC/C(=C(\c1ccccc1)c1ccc(OCCN(C)C)cc1)c1ccccc1 [tamoxifen],incidence of lipo-polysaccharide induced inflammatory responses,[8],reduce the incidence of lipo-polysacharride induced inflammatory responses
same,viability of CCRF/CEM cells,[7],cause a decrease in viability
CN(C)CCOc1ccc(/C(=C(/CCCl)c2ccccc2)c2ccccc2)cc1 [toremifene],inhibition at 10 µM,"[9]; Homo sapiens, PC-3, 10 μM, 72 hrs",100%
same,"PC-3 growth inhibition, qualitative grading","[9]; in vitro, data not shown",−2 (−2 for about 50-70%)
same,serum lipid parameters overall,[10],statistically significant improvement in all serum lipid parameters measured
same,change in HDL levels,[10]; [11],+5.4%
same,change in LDL,[10]; [11],−9.0%
same,change in total circulating cholesterol,[10]; [11],−7.1%
same,change in triglyceride levels,[10]; [11],−20.1%
same,osteoclast differentiation / osteoclast activity,[4],minimally but dose-dependently suppressed the osteoclast differentiation
